Experimental data as given in US9650339B2, “Inhibitors of histone demethylases” (Gilead Sciences, Inc., priority 2013, dated 2017).

Experiments:
KDM6A (UTX) = KDM6A (UTX) (Homo sapiens, UniProt O15550); assay: Histone lysine demethylase AlphaLISA assay, KDM6A; format: biochemical; conditions: read-out: KDM6A HDME Inhibition IC50
How it was run: (§1)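 Enzyme 10 min pre-incubation; + compound (3% DMSO soln) 10 min; + biotin-H3 methyl-Lys peptide, 25 μM L-Asc, 10 μM α-KG, RT. Read: AlphaLISA acceptor beads, then streptavidin donor beads, RT, dark.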

KDM4A (JMJD2A) = molecular target: T1, KDM4A (JMJD2A) (Homo sapiens, UniProt O75164); assay: Histone lysine demethylase AlphaLISA assay, KDM4A; format: biochemical; conditions: read-out: KDM4A HDME Inhibition IC50
T1 construct: 1-350; purchased BPS Bioscience, US; host or cells: E. coli
T1 sequence (O75164 1-350): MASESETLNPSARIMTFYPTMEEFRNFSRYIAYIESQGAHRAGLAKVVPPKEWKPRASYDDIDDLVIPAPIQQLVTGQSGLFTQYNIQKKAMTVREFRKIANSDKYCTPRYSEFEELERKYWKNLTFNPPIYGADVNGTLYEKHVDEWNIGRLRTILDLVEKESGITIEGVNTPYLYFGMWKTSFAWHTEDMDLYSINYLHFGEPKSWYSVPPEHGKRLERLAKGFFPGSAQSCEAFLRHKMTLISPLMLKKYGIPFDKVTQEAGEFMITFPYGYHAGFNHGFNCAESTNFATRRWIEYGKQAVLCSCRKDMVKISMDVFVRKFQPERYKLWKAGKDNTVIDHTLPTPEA
How it was run: as §1

KDM4C = molecular target: T2, KDM4C (Homo sapiens, UniProt Q9H3R0); assay: Histone lysine demethylase immunofluorescence assay, U2OS cells transfected with KDM4C; format: cell-based; conditions: U2OS cells transfected with pCMVHA KDM4C; mark detected H3K9me3; 20 hours
T2 construct: Full length; host or cells: U2OS
T2 sequence (Q9H3R0 1-1056): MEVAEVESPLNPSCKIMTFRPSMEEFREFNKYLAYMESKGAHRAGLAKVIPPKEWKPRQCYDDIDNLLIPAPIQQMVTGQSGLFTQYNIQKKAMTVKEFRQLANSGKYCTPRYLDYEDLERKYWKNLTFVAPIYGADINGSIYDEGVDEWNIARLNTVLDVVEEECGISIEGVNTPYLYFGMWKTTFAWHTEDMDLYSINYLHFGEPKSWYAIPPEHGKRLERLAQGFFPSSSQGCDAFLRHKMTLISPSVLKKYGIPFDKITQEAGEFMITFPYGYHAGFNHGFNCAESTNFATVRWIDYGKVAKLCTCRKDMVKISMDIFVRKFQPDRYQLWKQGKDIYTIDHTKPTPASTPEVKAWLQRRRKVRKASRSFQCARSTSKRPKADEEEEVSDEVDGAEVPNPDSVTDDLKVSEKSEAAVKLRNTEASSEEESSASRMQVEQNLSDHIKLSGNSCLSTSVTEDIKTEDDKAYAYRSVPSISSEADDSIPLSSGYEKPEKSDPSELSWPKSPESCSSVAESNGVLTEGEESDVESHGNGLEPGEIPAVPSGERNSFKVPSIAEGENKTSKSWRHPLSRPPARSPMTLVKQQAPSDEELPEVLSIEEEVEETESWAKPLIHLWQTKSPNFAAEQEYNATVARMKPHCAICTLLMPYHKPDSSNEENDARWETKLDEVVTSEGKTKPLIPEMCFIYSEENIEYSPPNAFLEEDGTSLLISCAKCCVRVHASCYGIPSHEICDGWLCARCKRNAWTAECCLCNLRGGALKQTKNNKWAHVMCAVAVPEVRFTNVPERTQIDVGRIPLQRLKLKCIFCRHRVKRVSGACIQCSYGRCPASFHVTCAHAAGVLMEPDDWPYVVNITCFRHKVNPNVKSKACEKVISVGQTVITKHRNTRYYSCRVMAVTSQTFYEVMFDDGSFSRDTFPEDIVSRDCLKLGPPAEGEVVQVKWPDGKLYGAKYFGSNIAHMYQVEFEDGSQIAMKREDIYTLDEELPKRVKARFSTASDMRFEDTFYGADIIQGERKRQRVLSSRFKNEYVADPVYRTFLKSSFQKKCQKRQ
How it was run: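 U2OS cells were transiently transfected with HA-tagged demethylase and reseeded after 6 h into compound-containing DMEM/10% FBS for 20 h. Cells were fixed in formaldehyde and immunostained for HA and the relevant histone methyl mark, then imaged. IC50 is based on mean mark staining in HA+ transfected cells.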

KDM5C (JARID1C) = molecular target: T3, KDM5C (JARID1C) (Homo sapiens, UniProt P41229); assay: Histone lysine demethylase AlphaLISA assay, KDM5C; format: biochemical; conditions: read-out: KDM5C HDME Inhibition IC50
T3 construct: 2-1560; purchased BPS; host or cells: Bac (baculovirus system)
How it was run: as §1

T3 sequence (P41229 2-1560): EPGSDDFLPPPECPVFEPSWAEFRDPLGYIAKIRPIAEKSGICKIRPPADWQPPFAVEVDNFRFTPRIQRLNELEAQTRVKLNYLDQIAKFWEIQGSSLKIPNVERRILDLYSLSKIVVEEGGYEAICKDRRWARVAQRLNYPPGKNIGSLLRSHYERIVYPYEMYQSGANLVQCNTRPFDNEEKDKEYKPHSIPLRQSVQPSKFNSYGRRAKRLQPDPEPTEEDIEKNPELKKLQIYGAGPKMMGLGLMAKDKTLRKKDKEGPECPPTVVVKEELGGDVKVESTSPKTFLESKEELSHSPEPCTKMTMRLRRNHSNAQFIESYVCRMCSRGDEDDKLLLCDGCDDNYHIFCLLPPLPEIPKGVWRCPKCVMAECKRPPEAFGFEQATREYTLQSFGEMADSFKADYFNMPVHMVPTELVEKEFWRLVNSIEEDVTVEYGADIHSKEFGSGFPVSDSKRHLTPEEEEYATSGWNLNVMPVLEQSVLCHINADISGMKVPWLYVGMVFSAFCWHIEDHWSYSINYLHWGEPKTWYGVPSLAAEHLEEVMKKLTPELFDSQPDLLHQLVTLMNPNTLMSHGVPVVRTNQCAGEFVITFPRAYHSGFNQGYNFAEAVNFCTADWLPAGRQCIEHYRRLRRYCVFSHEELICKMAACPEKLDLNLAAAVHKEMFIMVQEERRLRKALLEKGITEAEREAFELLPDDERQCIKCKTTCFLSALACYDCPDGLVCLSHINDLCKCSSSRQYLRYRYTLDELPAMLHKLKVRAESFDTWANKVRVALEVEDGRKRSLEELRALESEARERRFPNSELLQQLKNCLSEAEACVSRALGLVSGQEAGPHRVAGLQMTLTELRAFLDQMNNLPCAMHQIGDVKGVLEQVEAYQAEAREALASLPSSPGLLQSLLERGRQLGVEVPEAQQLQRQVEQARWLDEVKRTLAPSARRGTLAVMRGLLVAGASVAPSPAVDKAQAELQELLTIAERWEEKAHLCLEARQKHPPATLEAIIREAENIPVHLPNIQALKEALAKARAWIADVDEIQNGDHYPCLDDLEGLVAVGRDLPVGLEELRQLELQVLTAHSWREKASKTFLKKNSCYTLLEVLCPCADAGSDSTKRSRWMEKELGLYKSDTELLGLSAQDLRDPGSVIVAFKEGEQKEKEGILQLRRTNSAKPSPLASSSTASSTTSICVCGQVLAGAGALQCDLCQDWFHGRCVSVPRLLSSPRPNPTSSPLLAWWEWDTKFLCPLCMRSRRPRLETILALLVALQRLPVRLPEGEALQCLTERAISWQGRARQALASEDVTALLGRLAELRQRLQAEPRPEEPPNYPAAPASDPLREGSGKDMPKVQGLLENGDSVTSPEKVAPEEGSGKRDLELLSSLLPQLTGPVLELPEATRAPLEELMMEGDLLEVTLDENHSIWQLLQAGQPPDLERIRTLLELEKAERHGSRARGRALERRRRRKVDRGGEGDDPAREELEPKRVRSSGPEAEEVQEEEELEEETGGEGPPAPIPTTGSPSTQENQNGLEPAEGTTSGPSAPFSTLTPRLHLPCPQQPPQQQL
Sequence of KDM6A (UTX) (O15550 919-1401): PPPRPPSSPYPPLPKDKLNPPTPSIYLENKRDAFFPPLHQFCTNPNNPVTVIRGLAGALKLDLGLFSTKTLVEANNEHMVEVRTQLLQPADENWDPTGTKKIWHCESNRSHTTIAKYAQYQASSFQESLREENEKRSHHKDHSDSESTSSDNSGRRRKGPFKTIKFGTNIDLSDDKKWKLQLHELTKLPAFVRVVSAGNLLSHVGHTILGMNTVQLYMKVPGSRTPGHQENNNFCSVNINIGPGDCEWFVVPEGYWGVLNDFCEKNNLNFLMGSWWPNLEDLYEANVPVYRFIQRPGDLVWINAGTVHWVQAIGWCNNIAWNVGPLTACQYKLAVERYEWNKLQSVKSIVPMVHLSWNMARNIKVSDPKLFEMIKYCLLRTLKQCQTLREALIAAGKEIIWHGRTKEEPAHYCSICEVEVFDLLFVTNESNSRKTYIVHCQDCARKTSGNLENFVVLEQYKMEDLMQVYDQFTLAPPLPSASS

| Compound | IC50 (KDM6A (UTX)) [nM] | IC50 (KDM4A (JMJD2A)) [nM] | IC50 (KDM4C) [nM] | IC50 (KDM5C (JARID1C)) [nM] |
| --- | --- | --- | --- | --- |
| COc1ccccc1CN1CCC(NC(=O)CNCc2cc(CNC3CC3)ccn2)CC1 [Compound 20, 2-[({4-[(cyclopropylamino)-methyl]pyridin-2-yl}methyl)amino]-N-{1-[(2-methoxyphenyl)methyl]-piperidin-4-yl}acetamide] |  | < 250 | > 2500 | < 250 |
| CCN(CCN(C)C)C(=O)CN(Cc1cc(CNC(=O)C(F)(F)F)ccn1)C(=O)C(F)(F)F [Compound 26, N-[(2-{[N-({[2-(dimethylamino)ethyl]-(ethyl)carbamoyl}-methyl)-2,2,2-trifluoroacetamido]-methyl}pyridin-4-yl)methyl]-2,2,2-trifIuoroacetamide] | > 2500 |  | 250 to 2500 |  |
| COC(=O)CNCc1cc(/C=N/C2CC2)ccn1 [Compound 59, methyl 2-[({4-[N-cyclopropyl-carboximidoyl]pyridin-2-yl}methyl)amino]-acetate] | > 2500 | 250 to 2500 | > 2500 | < 250 |
| CCN(CC)CCCCNCc1cc(C2NCCCN2C)ccn1 (stereo not drawn) [Compound 68, [4-(diethylamino)butyl]({[4-(1-methyl-1,3-diazinan-2-yl)pyridin-2-yl]methyl})amine] | > 2500 |  | 250 to 2500 |  |
| O=Cc1ccnc(CNCC(=O)NC2CCN(Cc3ccccc3)C2)c1 (stereo not drawn) [Compound 113, N-(1-benzylpyrrolidin-3-yl)-2-{[(4-formylpyridin-2-yl)methyl]amino}-acetamide] | > 2500 | 250 to 2500 | > 2500 | 250 to 2500 |

The remaining lines, values ahead:

| IC50 (KDM6A (UTX)) [nM] | IC50 (KDM4A (JMJD2A)) [nM] | IC50 (KDM4C) [nM] | IC50 (KDM5C (JARID1C)) [nM] | Compound |
| --- | --- | --- | --- | --- |
| > 2500 | > 2500 | 250 to 2500 |  | CN(C)CCCCNCc1cc(CN)ccn1 [Compound 2, [2-({[4-(dimethylamino)butyl]-amino}methyl)pyridin-4-yl]methanamine] |
| > 2500 | > 2500 |  |  | CN(C)CCNCc1ccnc(CNCCCN(C)Cc2ccccc2)c1 [Compound 18, benzyl[3-({[4-({[2-(dimethylamino)ethyl]-amino}methyl)pyridin-2-yl]methyl}-amino)propyl]-methylamine] |
| > 2500 | > 2500 | > 2500 | > 2500 | COCCNCc1ccnc(CNCCCN(C)Cc2ccccc2)c1 [Compound 19, benzyl(3-{[(4-{[(2-methoxyethyl)amino]-methyl}pyridin-2-yl)methyl]amino}-propyl)methylamine] |
| > 2500 | > 2500 | > 2500 |  | O=Cc1ccnc(CNCCCCN(Cc2ccccc2)C2CC2)c1 [Compound 109, 2-[({4-[benzyl-(cyclopropyl)amino]-butyl}amino)methyl]-pyridine-4-carbaldehyde] |
